# Results published in US20090018166A1, “New Pyridine Analogues X 161” (ASTRAZENECA AB, priority 2007, published 2009).
# Biological target: T1, P2Y12 receptor (Homo sapiens, UniProt Q9H244)
# T1 construct: expressed in transfected cells; host or cells: CHO cells (membranes)
# Test: Functional inhibition of 2-Me-S-ADP induced P2Y12 signalling (35S-GTPγS binding, membranes from P2Y12 transfected CHO-cells)
# Assay type: biochemical
# Details: 35S-GTPγS, EC80 of 2-methyl-thio-adenosine diphosphate, P2Y12 CHO membranes; value given in each example; read-out: GTPγS(IC50 μM)
# Experimental: Functional inhibition of- the P2Y12 receptor can be measured by in vitro assays using cell membranes from P2Y12 transfected CHO-cells, the methodology is indicated below.
# Functional inhibition of 2-Me-S-ADP induced P2Y12 signalling: 5 μg of membranes were diluted in 200 μl of 200 mM NaCl, 1 mM MgCl2, 50 mM HEPES (pH 7.4), 0.01% BSA, 30 μg/ml saponin and 10 μM GDP. To this was added an EC80 concentration of agonist (2-methyl-thio-adenosine diphosphate), the required concentration of test compound and 0.1 μCi ^35S-GTPγS. The reaction was allowed to proceed at 30° C. for 45 min. Samples were then transferred on to GF/B filters using a cell harvester and washed with wash buffer (50 mM Tris (pH 7.4), 5 mM MgCl2, 50 mM NaCl). Filters were then covered with scintilant and counted for the amount of ^35S-GTPγS retained by the filter. Maximum activity was that determined in the presence of the agonist and minimum activity in the absence of the agonist following subtraction of the value determined for non-specific activity. The effect of compounds at various concentrations was plotted according to the equation
# y=A+((B−A)/(1+((C/x)̂D)))
# and IC50 estimated where A is the bottom plateau of the curve i.e. the final minimum y value B is the top of the plateau of the curve i.e. the final maximum y value C is the x value at the middle of the curve. This represents the log EC50 value when A+B=100 D is the slope factor. x is the original known x values. Y is the original known y values.
# T1 sequence (Q9H244 whole entry): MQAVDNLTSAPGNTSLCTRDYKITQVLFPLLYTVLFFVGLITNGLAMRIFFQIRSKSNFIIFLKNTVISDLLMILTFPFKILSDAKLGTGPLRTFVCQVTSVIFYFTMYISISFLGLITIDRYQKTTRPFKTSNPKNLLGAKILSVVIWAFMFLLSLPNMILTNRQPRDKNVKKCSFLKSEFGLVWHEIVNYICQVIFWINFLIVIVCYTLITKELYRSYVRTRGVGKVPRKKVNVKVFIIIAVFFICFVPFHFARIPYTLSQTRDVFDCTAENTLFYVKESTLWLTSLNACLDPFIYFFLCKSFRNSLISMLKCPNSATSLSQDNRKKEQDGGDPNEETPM
row,Structure (SMILES),IC50
1,"CCCC(=O)c1cc(C#N)c(N2CCC(C(=O)NS(=O)(=O)N(C)c3ccc(F)cc3)CC2)nc1CN1CCCC1=O [Example 33, 1-{5-Butyryl-3-cyano-6-[(2-oxopyrrolidin-1-yl)methyl]pyridin-2-yl}-N-{[(4-fluorophenyl)(methyl)amino]sulfonyl}piperidine-4-carboxamide]",0.011 µM
2,"CCCC(=O)c1cc(C#N)c(N2CCC(C(=O)NS(=O)(=O)N(C)c3ccccc3)CC2)nc1CN1CCCC1=O [Example 34, 1-{5-Butyryl-3-cyano-6-[(2-oxopyrrolidin-1-yl)methyl]pyridin-2-yl}-N-{[methyl(phenyl)amino]sulfonyl}piperidine-4-carboxamide]",0.012 µM
3,"CCCC(=O)c1cc(C#N)c(N2CCC(C(=O)NS(=O)(=O)Nc3ccc(F)cc3)CC2)nc1CN1CCCC1=O [Example 37, 1-{5-Butyryl-3-cyano-6-[(2-oxopyrrolidin-1-yl)methyl]pyridin-2-yl}-N-{[(4-fluorophenyl)amino]sulfonyl}piperidine-4-carboxamide]",0.019 µM
4,"CCCC(=O)c1cc(C#N)c(N2CCC(C(=O)NS(=O)(=O)Nc3ccccc3)CC2)nc1CN1CCCC1=O [Example 38, N-(Anilinosulfonyl)-1-{5-butyryl-3-cyano-6-[(2-oxopyrrolidin-1-yl)methyl]pyridin-2-yl}piperidine-4-carboxamide]",0.033 µM
5,"C=CCCC(=O)c1cc(C#N)c(N2CCC(C(=O)NS(=O)(=O)Cc3ccc(C)cc3)CC2)nc1CN1CCCC1=O [Example 40, 1-{3-cyano-6-[(2-oxopyrrolidin-1-yl)methyl]-5-pent-4-enoylpyridin-2-yl}-N-[(4-methylbenzyl)sulfonyl]piperidine-4-carboxamide]",0.0081 µM
6,"C=CCCC(=O)c1cc(C#N)c(N2CCC(C(=O)NS(=O)(=O)Cc3ccc(F)cc3F)CC2)nc1CN1CCCC1=O [Example 41, 1-{3-cyano-6-[(2-oxopyrrolidin-1-yl)methyl]-5-pent-4-enoylpyridin-2-yl}-N-[(2,4-difluorobenzyl)sulfonyl]piperidine-4-carboxamide]",0.009 µM
7,"N#Cc1cc(C(=O)CCC(F)(F)F)c(CN2CCCC2=O)nc1N1CCC(C(=O)NS(=O)(=O)Cc2ccc(F)cc2F)CC1 [Example 42, 1-{3-Cyano-6-[(2-oxopyrrolidin-1-yl)methyl]-5-(4,4,4-trifluorobutanoyl)pyridin-2-yl}-N-[(2,4-difluorobenzyl)sulfonyl]piperidine-4-carboxamide]",0.016 µM
8,"N#Cc1cc(C(=O)CCC(F)(F)F)c(CN2CCCC2=O)nc1N1CCC(C(=O)NS(=O)(=O)CC2CCCC2)CC1 [Example 44, 1-{3-cyano-6-[(2-oxopyrrolidin-1-yl)methyl]-5-(4,4,4-trifluorobutanoyl)pyridin-2-yl}-N-[(cyclopentylmethyl)sulfonyl]piperidine-4-carboxamide]",0.146 µM
9,"CCCCC(=O)c1cc(C#N)c(N2CCC(C(=O)NS(=O)(=O)Cc3ccc(C#N)cc3)CC2)nc1CN1CCCC1=O [Example 47, N-[(4-cyanobenzyl)sulfonyl]-1-{3-cyano-6-[(2-oxopyrrolidin-1-yl)methyl]-5-pentanoylpyridin-2-yl}piperidine-4-carboxamide]",0.043 µM
10,"CCCCC(=O)c1cc(C#N)c(N2CCC(C(=O)NS(=O)(=O)CC3CCCCC3)CC2)nc1CN1CCCC1=O [Example 48, 1-{3-cyano-6-[(2-oxopyrrolidin-1-yl)methyl]-5-pentanoylpyridin-2-yl}-N-[(cyclohexylmethyl)sulfonyl]piperidine-4-carboxamide]",0.023 µM
11,"C=CCCC(=O)c1cc(Cl)c(N2CCC(C(=O)NS(=O)(=O)N(C)c3ccc(F)cc3)CC2)nc1CN1CCCC1=O [Example 50, 1-{3-chloro-6-[(2-oxopyrrolidin-1-yl)methyl]-5-pent-4-enoylpyridin-2-yl}-N-{[(4-fluorophenyl)(methyl)amino]sulfonyl}piperidine-4-carboxamide]",0.167 µM
12,"C=CCCC(=O)c1cc(Cl)c(N2CCC(C(=O)NS(=O)(=O)Cc3ccccc3)CC2)nc1CN1CCCC1=O [Example 51, N-(benzylsulfonyl)-1-{3-chloro-6-[(2-oxopyrrolidin-1-yl)methyl]-5-pent-4-enoylpyridin-2-yl}piperidine-4-carboxamide]",0.069 µM
13,"CCCC(=O)c1cc(Cl)c(N2CCC(C(=O)NS(=O)(=O)CC3CCCCC3)CC2)nc1CN1CCCC1=O [Example 52, 1-{5-butyryl-3-chloro-6-[(2-oxopyrrolidin-1-yl)methyl]pyridin-2-yl}-N-[(cyclohexylmethyl)sulfonyl]piperidine-4-carboxamide]",0.231 µM
14,"CCCC(=O)c1cc(Cl)c(N2CCC(C(=O)NS(=O)(=O)Cc3ccc(F)cc3F)CC2)nc1CN1CCCC1=O [Example 53, 1-{5-butyryl-3-chloro-6-[(2-oxopyrrolidin-1-yl)methyl]pyridin-2-yl}-N-[(2,4-difluorobenzyl)sulfonyl]piperidine-4-carboxamide]",0.032 µM
15,"CCCCC(=O)c1cc(Cl)c(N2CCC(C(=O)NS(=O)(=O)N(C)c3ccc(F)cc3)CC2)nc1CN1CCCC1=O [Example 56, 1-{3-chloro-6-[(2-oxopyrrolidin-1-yl)methyl]-5-pentanoylpyridin-2-yl}-N-{[(4-fluorophenyl)(methyl)amino]sulfonyl}piperidine-4-carboxamide]",0.247 µM
16,"CCCCC(=O)c1cc(Cl)c(N2CCC(C(=O)NS(=O)(=O)Cc3ccccc3)CC2)nc1CN1CCCC1=O [Example 57, N-(benzylsulfonyl)-1-{3-chloro-6-[(2-oxopyrrolidin-1-yl)methyl]-5-pentanoylpyridin-2-yl}piperidine-4-carboxamide]",0.079 µM
17,"N#Cc1cc(C(=O)CCC(F)(F)F)c(CN2CCCC2=O)nc1N1CCC(C(=O)NS(=O)(=O)Cc2ccccc2)CC1 [Example 58, N-(benzylsulfonyl)-1-{3-cyano-6-[(2-oxopyrrolidin-1-yl)methyl]-5-(4,4,4-trifluorobutanoyl)pyridin-2-yl}piperidine-4-carboxamide]",0.084 µM

# Other lines, results leading:
row,IC50,Structure (SMILES)
1,0.0097 µM,"CCCC(=O)c1cc(C#N)c(N2CCC(C(=O)NS(=O)(=O)Cc3ccc(OC)cc3)CC2)nc1CN1CCCC1=O [Example 35, 1-{5-Butyryl-3-cyano-6-[(2-oxopyrrolidin-1-yl)methyl]pyridin-2-yl}-N-[(4-methoxybenzyl)sulfonyl]piperidine-4-carboxamide]"
2,0.014 µM,"CCCC(=O)c1cc(C#N)c(N2CCC(C(=O)NS(=O)(=O)CC3CCCCC3)CC2)nc1CN1CCCC1=O [Example 36, 1-{5-Butyryl-3-cyano-6-[(2-oxopyrrolidin-1-yl)methyl]pyridin-2-yl}-N-[(cyclohexylmethyl)sulfonyl]piperidine-4-carboxamide]"
3,0.019 µM,"Cc1ccc(CS(=O)(=O)NC(=O)C2CCN(c3nc(CN4CCCC4=O)c(C(=O)CCC(F)(F)F)cc3C#N)CC2)cc1 [Example 43, 1-{3-cyano-6-[(2-oxopyrrolidin-1-yl)methyl]-5-(4,4,4-trifluorobutanoyl)pyridin-2-yl}-N-[(4-methylbenzyl)sulfonyl]piperidine-4-carboxamide]"
4,0.05 µM,"CN(c1ccc(F)cc1)S(=O)(=O)NC(=O)C1CCN(c2nc(CN3CCCC3=O)c(C(=O)CCC(F)(F)F)cc2C#N)CC1 [Example 45, 1-{3-cyano-6-[(2-oxopyrrolidin-1-yl)methyl]-5-(4,4,4-trifluorobutanoyl)pyridin-2-yl}-N-{[(4-fluorophenyl)(methyl)amino]sulfonyl}piperidine-4-carboxamide]"
5,0.021 µM,"CCCCC(=O)c1cc(C#N)c(N2CCC(C(=O)NS(=O)(=O)Nc3ccc(F)cc3)CC2)nc1CN1CCCC1=O [Example 46, 1-{3-cyano-6-[(2-oxopyrrolidin-1-yl)methyl]-5-pentanoylpyridin-2-yl}-N-{[(4-fluorophenyl)amino]sulfonyl}piperidine-4-carboxamide]"
6,0.031 µM,"CCCCC(=O)c1cc(C#N)c(N2CCC(C(=O)NS(=O)(=O)Cc3ccc(C(C)C)cc3)CC2)nc1CN1CCCC1=O [Example 49, 1-{3-cyano-6-[(2-oxopyrrolidin-1-yl)methyl]-5-pentanoylpyridin-2-yl}-N-[(4-isopropylbenzyl)sulfonyl]piperidine-4-carboxamide]"
7,0.938 µM,"CCCCC(=O)c1cc(Cl)c(N2CCC(C(=O)NS(=O)(=O)CC3CCCC3)CC2)nc1CN1CCCC1=O [Example 54, 1-{3-chloro-6-[(2-oxopyrrolidin-1-yl)methyl]-5-pentanoylpyridin-2-yl}-N-[(cyclopentylmethyl)sulfonyl]piperidine-4-carboxamide]"
8,0.226 µM,"CCCCC(=O)c1cc(Cl)c(N2CCC(C(=O)NS(=O)(=O)Cc3ccc(F)cc3F)CC2)nc1CN1CCCC1=O [Example 55, 1-{3-chloro-6-[(2-oxopyrrolidin-1-yl)methyl]-5-pentanoylpyridin-2-yl}-N-[(2,4-difluorobenzyl)sulfonyl]piperidine-4-carboxamide]"
9,0.132 µM,"CCCCC(=O)c1cc(Cl)c(N2CCC(C(=O)NS(=O)(=O)Cc3ccc(Cl)cc3)CC2)nc1CN1CCCC1=O [Example 59, N-[(4-chlorobenzyl)sulfonyl]-1-{3-chloro-6-[(2-oxopyrrolidin-1-yl)methyl]-5-pentanoylpyridin-2-yl}piperidine-4-carboxamide]"
